Data as given in patent publication US12577247B2 (BUGWORKS RESEARCH, INC., priority 2021, dated 2026).

Assays:
Format in all cases: cell-based
A2A receptor [1] = target: T1, A2A receptor (Homo sapiens, UniProt P29274); test: A2aR antagonism IC50, cAMP TR-FRET (Lance Ultra) in HEK-293 cells, NECA as agonist; conditions: A2AR IC50 (nM) (@5 nM NECA), HEK-293 cells expressing A2A receptor; agonist NECA 5 nM (EC90); inhibition of cAMP;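 also: compounds tested from 10 µM down to 0.08 nM in buffer with Rolipram at room temperature, TR-FRET cAMP signal read 1 h after adding Eu-cAMP tracer and ULight anti-cAMP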
T1 construct: host or cells: HEK-293
T1 sequence (P29274 whole entry): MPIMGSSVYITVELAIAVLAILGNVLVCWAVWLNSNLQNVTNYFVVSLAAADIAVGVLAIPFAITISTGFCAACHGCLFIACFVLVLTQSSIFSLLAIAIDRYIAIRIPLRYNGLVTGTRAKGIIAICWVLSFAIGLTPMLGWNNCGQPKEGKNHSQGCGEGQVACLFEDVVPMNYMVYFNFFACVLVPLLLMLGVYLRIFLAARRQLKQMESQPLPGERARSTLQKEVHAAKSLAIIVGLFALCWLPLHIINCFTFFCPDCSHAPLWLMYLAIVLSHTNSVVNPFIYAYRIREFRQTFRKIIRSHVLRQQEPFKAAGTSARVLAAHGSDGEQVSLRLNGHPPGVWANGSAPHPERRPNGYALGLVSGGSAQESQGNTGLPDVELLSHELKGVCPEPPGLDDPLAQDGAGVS

A2A receptor [2] = target: T1, A2A receptor; test: A2aR antagonism IC50, cAMP TR-FRET in HEK-293 cells, high concentration of adenosine (30 μM); conditions: HEK-293 cells expressing A2A receptor; agonist adenosine 30 μM; 2% HSA; inhibition of cAMP; read-out: A2AR IC50 (nM) (@30 μM Adenosine);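 also: compounds added 10 min before adenosine, then 30 min stimulation at room temperature in buffer with 100 µM rolipram and 30 µM EHNA, signal read 1 h after detection reagents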
A2B receptor = target: T2, A2B receptor (Homo sapiens, UniProt P29275); test: A2bR antagonism IC50, cAMP TR-FRET (Lance Ultra) in HEK-293 cells, NECA as agonist; set-up: host or cells: HEK-293; conditions: HEK-293 cells expressing A2B receptor; agonist NECA 30 nM (EC90); inhibition of cAMP
T2 sequence (P29275 1-332): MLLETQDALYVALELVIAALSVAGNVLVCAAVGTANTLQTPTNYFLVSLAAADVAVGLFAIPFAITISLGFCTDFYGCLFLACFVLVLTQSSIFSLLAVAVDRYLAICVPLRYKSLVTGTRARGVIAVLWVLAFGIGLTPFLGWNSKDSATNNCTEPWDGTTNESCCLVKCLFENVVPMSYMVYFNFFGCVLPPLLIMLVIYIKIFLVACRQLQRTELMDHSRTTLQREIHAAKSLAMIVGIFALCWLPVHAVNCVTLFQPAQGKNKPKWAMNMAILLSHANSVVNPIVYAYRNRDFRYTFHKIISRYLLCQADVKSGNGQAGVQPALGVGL
Text: Adenosine A2A receptors and Adenosine A2B receptors induce the production of cAMP when activated/stimulated by an agonist like adenosine or 5′-(N-Ethylcarboxamido) adenosine (NECA). A Time-Resolved Fluorescence Energy Transfer (TR-FRET) assay was used to show the inhibition of this cAMP production in HEK cells upon treatment with compounds of the Formula I of the present disclosure.
HEK-293 cells expressing A2A receptor (#ES-011-C) or A2B receptor (#ES 013-C) were obtained from PerkinElmer. Cells were maintained in DMEM medium supplemented with 10% FBS and 200 μg/mL of G418 at 37° C. and 5% CO2. The cells were cultured in antibiotic free medium for a period of 16-20 hours prior to the assay. All subsequent steps of the assay are performed at room temperature (22-24° C.). The cells were harvested at about 80% confluency by gentle flushing with PBS, recovered by centrifugation and resuspended in stimulation buffer at the concentration of 5.0×10^6 cells/mL.
The assays were conducted in a stimulation buffer containing 1×DMEM, 5 mM HEPES, 0.1% BSA stabilizer and 20-30 μM Rolipram. Serial dilutions of compounds were made in stimulation buffer to achieve a final concentration of high micromolar (10 μM to 0.08 nM) in the reaction volume of 10 μL. The total reaction volume was 10 μL (5 μL of cells, 2.5 μL of antagonist and 2.5 μL of agonist). The stimulation was ended, and the reaction completed by adding 5 μL of 4× Eu-cAMP tracer working solution and 5 μL of 4× ULight-anti-cAMP working solution. The TR-FRET signal was measured after 1-hour incubation using a Tecan M1000 reader.

Compound	IC50 (A2A receptor [1]) [nM]	IC50 (A2A receptor [2]) [nM]	IC50 (A2B receptor) [nM]
CCc1c(C(F)F)nn2c(N)c(C#N)c(NCCc3ccn(C(C)(C)CO)n3)nc12 [Example 48, 7-amino-2-(difluoromethyl)-3-ethyl-5-((2-(1-(1-hydroxy-2-methylpropan-2-yl)-1H-pyrazol-3-yl)ethyl)amino) pyrazolo[1,5-a]pyrimidine-6-carbonitrile]	2.2	7660	51
Cc1nn2c(N)c(C#N)c(NCCc3ccn(C(C)(C)CO)n3)nc2c1Cl [Example 36, 7-amino-3-chloro-5-((2-(1-(1-hydroxy-2-methylpropan-2-yl)-1H-pyrazol-3-yl)ethyl)amino)-2-methylpyrazolo[1,5-a]pyrimidine-6-carbonitrile]	0.8	250	22
Cc1nn2c(N)c(C#N)c(NCCc3cccc(C4CC4CO)n3)nc2c1Cl (stereo not shown) [Example 38, 7-amino-3-chloro-5-((2-(6-(2-(hydroxymethyl)cyclopropyl)pyridin-2-yl)ethyl)amino)-2-methylpyrazolo[1,5-a]pyrimidine-6-carbonitrile]	0.1	178	4.4
Cc1nn2c(N)c(C#N)c(NCCc3cccc(C(C)(C)CO)n3)nc2c1Cl [Example 65, 7-amino-3-chloro-5-((2-(6-(1-hydroxy-2-methylpropan-2-yl)pyridin-2-yl)ethyl)amino)-2-methylpyrazolo[1,5-a]pyrimidine-6-carbonitrile]	< 1	227	27
CCc1c(C)nn2c(N)c(C#N)c(NCCc3cccc(C(C)(C)CO)n3)nc12 [Example 52, 7-amino-3-ethyl-5-((2-(6-(1-hydroxy-2-methylpropan-2-yl)pyridin-2-yl)ethyl)amino)-2-methylpyrazolo[1,5-a] pyrimidine-6-carbonitrile]	0.54	–	29.3
CCc1c(C)nn2c(N)c(C#N)c(NCCc3cccc(C(C)(C)O)n3)nc12 [Example 25, 7-amino-3-ethyl-5-({2-[6-(2-hydroxypropan-2-yl)pyridin-2-yl]ethyl}amino)-2-methylpyrazolo[1,5-a]pyrimidine-6-carbonitrile]	0.2	–	14
Cc1nn2c(N)c(C#N)c(NCc3ccn(C(C)(C)CO)n3)nc2c1C [Example 57, 7-amino-5-(((1-(1-hydroxy-2-methylpropan-2-yl)-1H-pyrazol-3-yl)methyl)amino)-2,3-dimethylpyrazolo[1,5-a]pyrimidine-6-carbonitrile]	13	–	100
Cc1nn2c(N)c(C#N)c(NCCc3ccc(F)cn3)nc2c1C [Example 11, 7-amino-5-((2-(5-fluoropyridin-2-yl)ethyl)amino)-2,3-dimethylpyrazolo[1,5-a]pyrimidine-6-carbonitrile]	6.8	–	43
CCc1c(C)nn2c(N)c(C#N)c(NCCc3nc(C4(CO)CC4)cs3)nc12 [Example 66]	5	–	21
CCc1c(C(F)F)nn2c(N)c(C#N)c(NCCc3cccc(CO)n3)nc12 [Example 56, 7-amino-2-(difluoromethyl)-3-ethyl-5-((2-(6-(hydroxymethyl)pyridine-2-yl)ethyl)amino) pyrazolo[1,5-a] pyrimidine-6-carbonitrile]	3.3	–	11
Cc1nn2c(N)c(C#N)c(NCCc3cccc(C(C)(C)CO)n3)nc2c1C [Example 53, 7-amino-5-((2-(6-(1-hydroxy-2-methylpropan-2-yl)pyridine-2-yl)ethyl)amino)-2,3-dimethylpyrazolo[1,5-a]pyrimidine-6-carbonitrile]	0.3	–	27
Cc1cccc(CNc2nc3c(C)c(C)nn3c(N)c2C#N)n1 [Example 6, 7-amino-2,3-dimethyl-5-{[(6-methylpyridin-2-yl)methyl]amino}pyrazolo[1,5-a] pyrimidine-6-carbonitrile]	6.6	–	> 3000
CCc1c(C)nn2c(N)c(C#N)c(NCCc3ccn(CCO)n3)nc12 [Example 54, 7-amino-3-ethyl-5-((2-(1-(2-hydroxyethyl)-1H-pyrazol-3-yl)ethyl)amino)-2-methylpyrazolo[1,5-a]pyrimidine-6-carbonitrile]	0.74	–	5
CCc1nn2c(N)c(C#N)c(NCCc3cccc(C(C)(C)O)n3)nc2c1C [Example 43, 7-amino-2-ethyl-5-((2-(6-(2-hydroxypropan-2-yl)pyridin-2-yl)ethyl)amino)-3-methylpyrazolo[1,5-a]pyrimidine-6-carbonitrile]	2.3	–	123
Cc1nn2c(N)c(C#N)c(NCCc3ccn(C(C)(C)CO)n3)nc2c1C [Example 31, 7-amino-5-({2-[1-(1-hydroxy-2-methylpropan-2-yl)-1H-pyrazol-3-yl]ethyl}amino)-2,3-dimethylpyrazolo[1,5-a]pyrimidine-6-carbonitrile]	0.73	–	51
Cc1ccc(CCNc2nc3c(C)c(C)nn3c(N)c2C#N)nc1 [Example 10, 7-Amino-2,3-dimethyl-5-((2-(5-methylpyridin-2-yl)ethyl)amino) pyrazolo[1,5-a] pyrimidine-6-carbonitrile]	2.3	–	41
Cc1cccc(CN(C)c2nc3c(C)c(C)nn3c(N)c2C#N)n1 [Example 8, 7-amino-2,3-dimethyl-5-{methyl[(6-methylpyridin-2-yl)methyl]amino}pyrazolo [1,5-a] pyrimidine-6-carbonitrile]	46	–	1680
CCc1c(C)nn2c(N)c(C#N)c(N[C@H](C)c3ccccn3)nc12 [Example 3, (R)-7-Amino-3-ethyl-2-methyl-5-((1-(pyridin-2-yl)ethyl)amino) pyrazolo[1,5-a] pyrimidine-6-carbonitrile]	1010	–	> 3000
Cc1nn2c(N)c(C#N)c(NCCc3cccc(C(C)(C)O)n3)nc2c1C [Example 16, 7-amino-5-({2-[6-(2-hydroxypropan-2-yl)pyridin-2-yl]ethyl}amino)-2,3-dimethylpyrazolo[1,5-a]pyrimidine-6-carbonitrile]	2	–	53
CCc1c(C)nn2c(N)c(C#N)c(NC(C)Cc3ccccn3)nc12 (single isomer, unassigned) [Example 23, 7-Amino-3-ethyl-2-methyl-5-((1-(pyridin-2-yl)propan-2-yl)amino) pyrazolo[1,5-a]pyrimidine-6-carbonitrile]	11	–	130
CCc1c(C)nn2c(N)c(C#N)c(NCCc3ccc(C)cn3)nc12 [Example 18, 7-Amino-3-ethyl-2-methyl-5-((2-(5-methylpyridin-2-yl)ethyl)amino) pyrazolo[1,5-a]pyrimidine-6-carbonitrile]	5.5	–	9.5
Cc1ccc(F)c(CCNc2nc3c(C)c(C)nn3c(N)c2C#N)n1 [Example 41, 7-amino-5-((2-(3-fluoro-6-methylpyridin-2-yl)ethyl)amino)-2,3-dimethylpyrazolo[1,5-a]pyrimidine-6-carbonitrile]	0.88	–	73
Cc1nn2c(N)c(C#N)c(NCCc3cccc(CO)n3)nc2c1C [Example 44, 7-amino-5-((2-(6-(hydroxymethyl)pyridin-2-yl)ethyl)amino)-2,3-dimethylpyrazolo[1,5-a]pyrimidine-6-carbonitrile]	1.3	–	2.3
Cc1nn2c(N)c(C#N)c(NCCc3ccn(CCO)n3)nc2c1Cl [Example 35]	0.92	–	16
Cc1cccc(C(C)Nc2nc3c(C)c(C)nn3c(N)c2C#N)n1 (stereo not shown) [Example 1, 7-amino-2,3-dimethyl-5-{[1-(6-methylpyridin-2-yl)ethyl]amino}pyrazolo[1,5-a]pyrimidine-6-carbonitrile]	10	–	1330
Cc1cccc(CCNc2nc3c(C(C)C)c(C)nn3c(N)c2C#N)n1 [Example 28, 7-amino-3-(isopropyl)-2-methyl-5-((2-(6-methylpyridin-2-yl)ethyl)amino) pyrazolo[1,5-a]pyrimidine-6-carbonitrile]	31	–	17
CCc1nn2c(N)c(C#N)c(NCCc3cccc(C)n3)nc2c1C [Example 42, 7-amino-2-ethyl-3-methyl-5-((2-(6-methylpyridin-2-yl)ethyl)amino) pyrazolo[1,5-a]pyrimidine-6-carbonitrile]	0.88	–	76
CCc1c(C)nn2c(N)c(C#N)c(N[C@@H](C)c3cccc(C)n3)nc12 [Example 5, (S)-7-Amino-3-ethyl-2-methyl-5-((1-(6-methylpyridin-2-yl)ethyl)amino) pyrazolo [1,5-a] pyrimidine-6-carbonitrile]	0.15	–	0.87
CCc1c(C)nn2c(N)c(C#N)c(NCCc3nn(C(C)(C)CO)cc3F)nc12 [Example 62]	5	–	42
Cc1cccc(CCNc2nc3c(CC4CC4)c(C)nn3c(N)c2C#N)n1 [Example 26, 7-amino-3-(cyclopropylmethyl)-2-methyl-5-((2-(6-methylpyridin-2-yl)ethyl)amino) pyrazolo[1,5-a]pyrimidine-6-carbonitrile]	2.9	–	0.83
